According to patent US20110300147A9, “Inhibiting tumor cell invasion, metastasis and angiogenesis” (The Scripps Research institute, priority 2005, published 2011):
Peptide text beside a SMILES is read from it. * marks the point of attachment. Doxorubicin(3'-N) = COc1cccc2c1C(=O)c1c(O)c3c(c(O)c1C2=O)C[C@@](O)(C(=O)CO)C[C@@H]3O[C@H]1C[C@H](N*)[C@H](O)[C@H](C)O1; Boc = CC(C)(C)OC(=O)*

Key:
[1] = molecular target: T1, legumain in MDA MB231 breast cancer cells (Homo sapiens, UniProt Q99538); test: AEPI inhibitory assay, intracellular legumain activity; type: cell-based
T1 construct: endogenous in cells; host or cells: MDA-MB-231 human breast cancer cells
T1 sequence (Q99538 18-323): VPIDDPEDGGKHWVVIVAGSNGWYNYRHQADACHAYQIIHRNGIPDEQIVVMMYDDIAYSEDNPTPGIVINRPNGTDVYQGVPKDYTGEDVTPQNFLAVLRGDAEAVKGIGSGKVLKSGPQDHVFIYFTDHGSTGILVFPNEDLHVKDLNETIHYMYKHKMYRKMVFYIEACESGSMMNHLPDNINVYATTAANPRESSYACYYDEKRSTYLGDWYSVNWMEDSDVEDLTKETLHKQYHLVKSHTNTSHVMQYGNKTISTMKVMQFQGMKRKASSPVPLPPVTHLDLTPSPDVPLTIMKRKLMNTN
Description: AEPI Inhibitory Assay. Cancer cells were centrifuged at 800 rpm for 10 minutes and resuspended in DMEM to a density of 1.0×10^5 cells/ml. Approximately 5 ml of cells is used per assay plate. Cells (100 ul) were added to a 96-well plat bottom plate (10,000 cells/well, all the inner wells) and 100 ul of media was added to the outer wells. The cells were incubated at 37° C. overnight. The inhibitor compounds were diluted in a 96 well round bottom plate and the old media was removed from the cancer cell assay plate. The inhibitor (100 ul) was added to the cell assay plate and 200 ul of media was added to the outer wells. One to three days after the cancer cells were exposed to the inhibitor, the AEP activity was assessed as follows. Cells were detached with Trypsin-free cell-cell detachment media and transfer to Eppendorf tubes. Cells were then disrupted and the AEPI substrate was added to the cell lysate. This assay mixture was then incubated for an appropriate period of time and the amount of activated substrate was measured with fluorometer.

cancer cells = test: chemo-sensitizing cytotoxic assay, TNF-α plus legumain inhibitor; type: cell-based; conditions: compared among AEPI-1 to AEPI-5
Description: Chemo-sensitizing Cytotoxic Assay. Cancer cells were prepared for the assay as follows. The cells were centrifuged at 800 rpm for 10 minutes, resuspended in DMEM to a density of 1.0×10^5 cells/ml. Approximately 5 ml of cells were used per assay plate. Cells (100 ul) were added to a 96-well flat bottom plate (10,000 cells/well, all the inner wells) and 100 ul of media was added to the outer wells. The plates were incubated at 37° C. overnight. AEPI dilutions were prepared using a 96 well round bottom plate and medium as the diluent. After overnight incubation, the media was removed from the cancer cell assay plate, and the selected AEPI was added at the selected dilution or concentration. An additional 200 ul of media was added to the outer wells. Plates were incubated overnight at 37° C. XTT reagent (or other cell viability reagent) was prepared in phenol red free media. The media was removed from cells and 200 ul of fresh media containing the XTT reagent was added to all wells. The plates were incubated for 30 min to 4 hrs and cell viability was determined by reading the plates according to manufacturer specifications.

[2] = test system: legumain-expressing 293 (293L) cells; test: UV-induced apoptosis of legumain-expressing 293 cells; type: cell-based, human; conditions: dead cells after UV treatment as a function of AEPI-5 concentration
[3] = test system: legumain-expressing 293 (293L) cells; test: TNF-α induced cell death with or without AEPI-5; type: cell-based, human; conditions: with or without AEPI-5, function of TNF-α concentration
legumain+ 293 cells [4] = test: modified Boyden chamber invasion assay; type: cell-based, human
Description: (§1) Cell invasion and mobility assays. Cell migration and invasion assays were performed as described with modifications (Albini et al., 1987). Stock solutions (15 mg/ml) of Matrigel basement membrane matrix (Becton Dickinson, Bedford, Mass.) were stored at −80° C. in 100 μl aliquots. After thawing on ice, the stock was diluted 1:50 with cold serum-free culture media and immediately applied to each membrane insert (8 μm pore) that formed the upper chambers of the multi-well invasion assay plate. The Matrigel was incubated overnight in a sterile laminar tissue culture hood. The membranes were hydrated for 2 hours with 250 μl of serum-free medium and excess medium was removed by aspiration. Medium containing 10% FBS was added to the bottom of each well. A suspension of 10^5 cells in 150 μl of serum-free medium was added to the upper chamber and incubated for 12 hours at 37° C., 5% CO2. At the indicated times, the membrane inserts were removed from the plate and the non-invading cells were removed from the upper surface. Membrane associated cells were stained with 0.09% crystal violet for 30 minutes and washed twice with PBS. The invading cells were counted microscopically. Cell mobility assays were performed in a similar manner except the membrane inserts were not coated with Matrigel, and duration was shortened. […]

control 293 cells = test: WST-1 cytotoxicity assay, control 293 cells; conditions: control 293 cells, 48 h
Description: (§2) Cytotoxic assays. The WST-1 cell proliferation reagent (Roche Molecular Chemicals, Germany) was used to determine cell proliferation by quantification of cellular metabolic activity. Control 293 cells and legumain+ 293 cells were cultivated in microtiter plates (5×10^3 cells per well in 100 μl) and were incubated with serial concentrations of legubicin or doxorubicin for 48 h. Subsequently, 10 μl of WST-1 solution (1 mg/ml WST-1, 25 μM -methyldibenzopyrazine methyl sulfate) was added per well, and mixtures were incubated for an additional 4 h. The tetrazolium salt WST-1 (4-[3-(4-lodophenyl)-2-(4-nitrophenyl)-2H-5-tetrazolio-1,3-benzene disfonate) was cleaved by the mitochondrial succinate-tetrazolium-reductase system to formazan in cells which directly correlates to the number of metabolically viable cells in the culture. The amount of formazan salt was quantified in three replicates by absorbance at 450 nm using a micro-plate reader (Molecular Devices, Palo Alto, Calif.).
(§3) Cytotoxicity assays. The WST-1 cell proliferation reagent (Roche Molecular Chemicals, Germany) was used to determine cell proliferation by quantization of cellular metabolic activity. […] The amount of formazan salt was quantified in three replicates by absorbance at 450 nm using a micro-plate reader (Molecular Devices, Palo Alto, Calif.).

legumain+ 293 cells [5] = test: WST-1 cytotoxicity assay, legumain+ 293 cells; conditions: 48 h
Description: as §2, §3

[6] = test system: CT26 murine colon carcinoma; test: CT26 syngeneic murine colon carcinoma model; type: in vivo, Balb/c mice
Text: Animal models. […] Balb/C mice aged 4 to 6 weeks from the breeding colony were inoculated with 500,000 syngeneic CT26 tumor cells per site subcutaneously in the back. […] Treatment was repeated at 2 day intervals. The human 293 tumor models were generated in WEHI nude mice (The Scripps Research Institute breeding colony). […] Tumor growth and physical signs were monitored daily including any gross evidence of tumor necrosis, local tumor ulceration as well as evidence of toxicity including mobility, response to stimulus, eating, and weight of each animal. These procedures have been reviewed and approved by the Institutional Animal Care and Use Committee at The Scripps Research Institute. The work was conducted in The Scripps Research Institute facilities which are accredited by the Association for the Assessment and Accreditation of Laboratory Animal Care. The Scripps Research Institute maintains an assurance with the Public Health Service, is registered with the United States Department of Agriculture and is in compliance with all regulations relating to animal care and welfare.
Animal models. […] Treatment was three times per week for two weeks.

[7] = test system: legumain-promoted cancer cell invasion; test: cancer cell invasion assay with recombinant legumain protein; type: cell-based; conditions: recombinant legumain protein added
Description: as §1

legumain+ 293 cells [8] = test: in vitro migration assay; type: cell-based, human
Description: as §1

[9] = molecular target: T2, cell surface bound legumain (Homo sapiens, UniProt Q99538); test: gelatin zymogram, activation of progelatinase A by cells expressing legumain; type: cell-based; conditions: zymogen incubated with cells 10 minutes
T2 construct: expressed in transfected cells; host or cells: 293 cells stably expressing human legumain (legumain+ 293)
T2 sequence (Q99538 18-323): as above
Description: Zymogram. Control 293 cells and legumain+ 293 cells were plated into 96 wells plates at a cell density of 4,000 cells/well. The cells were allowed to attach overnight, then were serum starved for four hours. Zymogen forms of metalloproteinase 2 or 9 (Chemicon, Temecula, Calif.) were added at concentration of 0.1 μg/well with 50 μl reaction buffer (39.5 mM citric acid, 121 mM Na2HPO4, pH 5.8, 1 mM EDTA, and 0.8% […]) and the reactions were continued for 10 minutes. The reactants were collected and mixed with an equal volume of SDS sample buffer and held at room temperature for 10 minutes then applied to a zymogram gel (10% Tris-Glycine gel with 0.1% gelatin substrate). After electrophoresis, the gel was washed briefly and incubated with 2.5% (v/v) Triton X-100 at room temperature for 30 minutes with gentle agitation. Digestion of the incorporated gelatin by activated collagenase was conducted in buffer ([…], pH 7.25, 200 mM NaCl, […], 0.05% Brij-35, 0.02% NaN3) overnight. The gel was stained with Coomassie Blue R250 (Novex, San Diego, Calif.) and the presence of a protease was readily observed as a clear band.
Activation of progelatinase A by legumain. […] Zymogen forms of gelatinase A and B were incubated with the cells for 10 minutes, and the reaction products were analyzed by zymography. […] Moreover, no effect of legumain on zymogen gelatinase B was detected.

Molecule: CCOC(=O)C1OC1C(=O)N(CC(N)=O)NC(=O)C(C)NC(=O)C(C)NC(C)=O [AEPI-5, N-acetyl-Ala-Ala-AzaAsn-(S,S)-EPCOOEt]
- inhibition of legumain activities in MDA MB231 breast cancer cells ([1]; compared among AEPI-1 to AEPI-5): greatest inhibition
- cell permeability ([1]; preliminary results): sufficiently cell permeable
- cancer cell death on combined treatment with TNF-α (cancer cells): higher levels of cancer cell death
- UV-induced apoptosis [2]: sensitizes legumain-expressing 293 cells to UV-induced apoptosis
- TNF-α induced cell death [3]: sensitizes MDA-MB-231 human breast cancer cells to TNF-α induced cell death

Molecule: CC(C)C[C@H](NC(=O)[C@H]1O[C@@H]1C(=O)O)C(=O)NCCCCN=C(N)N [E64, reference compound]
- increased invasion of extracellular matrix by legumain+ cells (legumain+ 293 cells [4]): without effect

Molecule: COc1cccc2c1C(=O)c1c(O)c3c(c(O)c1C2=O)C[C@@](O)(C(=O)CO)C[C@@H]3O[C@H]1C[C@H](NC(=O)[C@H](CC(C)C)NC(=O)[C@H](CC(N)=O)NC(=O)[C@H](C)NC(=O)[C@H](C)NC(=O)OC(C)(C)C)[C@H](O)[C@H](C)O1 [legubicin, N-(-t-Butoxycarbonyl-L-alanyl-L-alanyl-L-asparaginyl-L-leucyl)doxorubicin] (Boc-AANL-{Doxorubicin(3'-N)})
- cytotoxic effect relative to that of doxorubicin (control 293 cells): less than 1%
- cytotoxic effect on legumain+ 293 cells (legumain+ 293 cells [5]): profound cytotoxic effect
- toxicity ([6]; i.p. 5 mg/kg three times at 2 day intervals): little evidence of toxicity
- injury in organs that express legumain (kidney, liver) ([6]; single injection of 5 mg/kg): no injury was evident

Molecule: cystatin
- legumain-promoted cell invasion [7]: partially inhibited
- enhanced migration of legumain+ 293 cells (legumain+ 293 cells [8]): inhibited
- increased invasion of extracellular matrix by legumain+ cells (legumain+ 293 cells [4]): inhibited
- generation of the 62 kDa active gelatinase A by cells expressing legumain [9]: inhibited
